Activity calls are given as the source filed them. No cut-off for these calls is given here.
Experiments:
A549 [1] = assay: Induction of apoptosis in human A549 cells assessed as late apoptotic cells at 4 uM after 24 hrs using annexin-V-PE/7-AAD double staining by flow cytometry; assay type: functional
A549 [2] = assay: Induction of apoptosis in human A549 cells assessed as viable cells at 4 uM after 24 hrs using annexin-V-PE/7-AAD double staining by flow cytometry; assay type: functional; settings: A549, 24 h, read-out: Activity
A549 [3] = assay: Induction of apoptosis in human A549 cells assessed as apoptotic cells at 4 uM after 24 hrs using annexin-V-PE/7-AAD double staining by flow cytometry; assay type: functional
A549 [4] = assay: Induction of apoptosis in human A549 cells assessed as pre-necrotic cells at 4 uM after 24 hrs followed by irradiated with light dose 0.18 J/cm2 using annexin-V-PE/7-AAD double staining by flow cytometry; assay type: functional
A549 [5] = assay: Induction of apoptosis in human A549 cells assessed as late apoptotic cells at 4 uM after 24 hrs followed by irradiated with light dose 0.18 J/cm2 using annexin-V-PE/7-AAD double staining by flow cytometry; assay type: functional
A549 [6] = assay: Induction of apoptosis in human A549 cells assessed as viable cells at 4 uM after 24 hrs followed by irradiated with light dose 0.18 J/cm2 using annexin-V-PE/7-AAD double staining by flow cytometry; assay type: functional; settings: A549, light or radiation study, read-out: Activity
A549 [7] = assay: Induction of apoptosis in human A549 cells assessed as apoptotic cells at 4 uM after 24 hrs followed by irradiated with light dose 0.18 J/cm2 using annexin-V-PE/7-AAD double staining by flow cytometry; assay type: functional
A549 [8] = assay: Induction of apoptosis in human A549 cells transfected with lentivirus TNFSF13-siRNA assessed as cell survival at 4 uM after 24 hrs followed by irradiated with light dose 0.18 J/cm2 by MTT assay; assay type: functional; settings: A549, light or radiation study, read-out: Activity
A549 [9] = assay: Induction of apoptosis in human A549 cells transfected with lentivirus GFP assessed as cell survival at 4 uM after 24 hrs followed by irradiated with light dose 0.18 J/cm2 by MTT assay; assay type: functional; settings: A549, light or radiation study, read-out: Activity
A549 [10] = assay: Induction of apoptosis in human A549 cells assessed as live mitochondrial membrane polarized cells at 4 uM after 24 hrs using JC-1 staining by flow cytometry; assay type: functional
A549 [11] = assay: Induction of apoptosis in human A549 cells assessed as late apoptotic mitochondrial membrane depolarized cells at 4 uM after 24 hrs using JC-1 staining by flow cytometry; assay type: functional
A549 [12] = assay: Induction of apoptosis in human A549 cells assessed as live mitochondrial membrane depolarized cells at 4 uM after 24 hrs using JC-1 staining by flow cytometry; assay type: functional
A549 [13] = assay: Induction of apoptosis in human A549 cells assessed as dying mitochondrial membrane depolarized cells at 4 uM after 24 hrs using JC-1 staining by flow cytometry; assay type: functional
A549 [14] = assay: Induction of apoptosis in human A549 cells assessed as live mitochondrial membrane polarized cells at 4 uM after 24 hrs followed by irradiated with light dose 0.18 J/cm2 using JC-1 staining by flow cytometry; assay type: functional
A549 [15] = assay: Induction of apoptosis in human A549 cells assessed as late apoptotic mitochondrial membrane depolarized cells at 4 uM after 24 hrs followed by irradiated with light dose 0.18 J/cm2 using JC-1 staining by flow cytometry; assay type: functional
A549 [16] = assay: Induction of apoptosis in human A549 cells assessed as live mitochondrial membrane depolarized cells at 4 uM after 24 hrs followed by irradiated with light dose 0.18 J/cm2 using JC-1 staining by flow cytometry; assay type: functional
A549 [17] = assay: Induction of apoptosis in human A549 cells assessed as dying mitochondrial membrane depolarized cells at 4 uM after 24 hrs followed by irradiated with light dose 0.18 J/cm2 using JC-1 staining by flow cytometry; assay type: functional
A549 [18] = assay: Induction of apoptosis in human A549 cells assessed as upregulation of Bcl2 mRNA expression at 4 uM after 24 hrs followed by irradiated with light dose 0.18 J/cm2 by RT-PCR analysis; assay type: functional, cell-based
A549 [19] = assay: Induction of apoptosis in human A549 cells assessed as upregulation of Smac mRNA expression at 4 uM after 24 hrs followed by irradiated with light dose 0.18 J/cm2 by RT-PCR analysis; assay type: functional, cell-based
A549 [20] = assay: Induction of apoptosis in human A549 cells assessed as upregulation of XIAP mRNA expression at 4 uM after 24 hrs followed by irradiated with light dose 0.18 J/cm2 by RT-PCR analysis; assay type: functional, cell-based
A549 [21] = assay: Induction of apoptosis in human A549 cells assessed as upregulation of TNFSF13 mRNA expression at 4 uM after 24 hrs followed by irradiated with light dose 0.18 J/cm2 by RT-PCR analysis; assay type: functional, cell-based
A549 [22] = assay: Induction of apoptosis in human A549 cells assessed as down regulation of […] mRNA expression at 4 uM after 24 hrs followed by irradiated with light dose 0.18 J/cm2 by RT-PCR analysis; assay type: functional, cell-based
A549 [23] = assay: Induction of apoptosis in human A549 cells assessed as down regulation of […] mRNA expression at 2 uM after 24 hrs followed by irradiated with light dose 0.18 J/cm2 by RT-PCR analysis; assay type: functional, cell-based
A549 [24] = assay: Induction of apoptosis in human A549 cells transfected with lentivirus Smac-siRNA assessed as cell survival at 4 uM after 24 hrs followed by irradiated with light dose 0.18 J/cm2 by MTT assay; assay type: functional; settings: A549, light or radiation study, read-out: Activity
A549 [25] = assay: Induction of apoptosis in human A549 cells transfected with lentivirus p53-siRNA assessed as reduction of p53 mRNA level at 4 uM after 24 hrs followed by irradiated with light dose 0.18 J/cm2 by MTT assay; assay type: functional; parameters: scale not given: the % may be the effect or the level left
A549 [26] = assay: Induction of apoptosis in human A549 cells transfected with lentivirus Smac-siRNA assessed as reduction of Smac mRNA level at 4 uM after 24 hrs followed by irradiated with light dose 0.18 J/cm2 by MTT assay; assay type: functional; parameters: scale not given: the % may be the effect or the level left
A549 [27] = assay: Induction of apoptosis in human A549 cells transfected with lentivirus GFP assessed as reduction of GFP mRNA level at 4 uM after 24 hrs followed by irradiated with light dose 0.18 J/cm2 by MTT assay; assay type: functional; parameters: scale not given: the % may be the effect or the level left
A549 [28] = assay: Antitumor activity against human A549 cells xenografted in nude BALB/C mouse assessed as tumor shrinkage at 8 uM after 24 hrs followed by irradiated with light dose 78 J/cm2 measured after 10 days; assay type: functional, cell-based
A549 [29] = assay: Antitumor activity against human A549 cells xenografted in nude BALB/C mouse assessed as dark tumor at 8 uM after 24 hrs followed by irradiated with light dose 78 J/cm2 measured after 10 days; assay type: functional, cell-based
A549 [30] = assay: Antitumor activity against human A549 cells xenografted in nude BALB/C mouse assessed as hardened tumor at 8 uM after 24 hrs followed by irradiated with light dose 78 J/cm2 measured after 10 days; assay type: functional, cell-based
A549 [31] = assay: Antitumor activity against human A549 cells xenografted in nude BALB/C mouse assessed as dry tumor at 8 uM after 24 hrs followed by irradiated with light dose 78 J/cm2 measured after 10 days; assay type: functional, cell-based

SMILES: C=Cc1c(C)c2cc3nc(c4c5[nH]c(cc6nc(cc1[nH]2)C(C)=C6CC)c(C)c5C(=O)N(C1CCCCC1)C4=O)[C@@H](CCC(=O)O)[C@@H]3C
- Activity (A549 [1]): 3.6%
- viability at 4 µM (A549 [2]): 91%
- Activity (A549 [3]): 2.96%
- Activity (A549 [4]): 7.63%
- Activity (A549 [5]): 27.71%
- viability at 4 µM (A549 [6]): 9.32%
- Activity (A549 [7]): 55.33%
- viability at 4 µM (A549 [8]): 72.1%
- viability at 4 µM (A549 [9]): 44.9%
- Activity (A549 [10]): 0%
- Activity (A549 [11]): 88.88%
- Activity (A549 [12]): 0.01%
- Activity (A549 [13]): 9.35%
- Activity (A549 [14]): 0.01%
- Activity (A549 [15]): 91.08%
- Activity (A549 [16]): 0.01%
- Activity (A549 [17]): 8.28%
- Activity (A549 [18]): Active
- Activity (A549 [19]): Active
- Activity (A549 [20]): Active
- Activity (A549 [21]): Active
- Activity (A549 [22]): Active
- Activity (A549 [23]): Active
- viability at 4 µM (A549 [24]): 24.5%
- Activity (A549 [25]): 60%
- Activity (A549 [26]): 60%
- Activity (A549 [27]): 18.8%
- Activity (A549 [28]): Active
- Activity (A549 [29]): Active
- Activity (A549 [30]): Active
- Activity (A549 [31]): Active
